The record followed here is US12269808B2, “Amino dithioperacid thioester compound, preparation method therefor, and use thereof” (FUDAN UNIVERSITY, priority 2019, dated 2025).

The subject of series [1] is BALB/c mice bearing C26 tumors. The experiment in a line: C26 tumor cancer cachexia animal model. The series is classed as in vivo, mouse. Conditions: 5 mg/kg oral gavage (i.g). As for the experimental part: The experimental results of cancer cachexia animal models treated with compound 4, by the following methods.
C26 cells were cultured in T75 culture flasks in the culture medium (RPMI-1640 medium containing 10% FBS, and P/S) and placed in a 5% CO2, 37° C. environment. The cells were harvested by centrifugation at 1000 rpm for 3 min, and washed with ice-cold PBS buffer to remove the remaining culture medium and prepared into a cell suspension of 1×10^7 cells/mL. The cell suspension was inoculated into the left and right armpits of BALB/c mice with 1×10^6 cells/mouse for subsequent inoculation. When the tumor volume increased to about […], the tumor was removed and homogenized at 3.5 mL of ice-old saline/g to obtain tumor tissue suspension. The mice to be inoculated were grouped according to their body weight, and the cell suspension was inoculated into the left armpit of BALB/c mice at the amount of 100 μL/mouse. The administration of the drug was started the day after inoculation. Compound 4 was first dissolved in DMSO and then mixed with pre-warmed PBS solution (37° C.) to form a homogeneous and stable solution at a final concentration of 1 mg/mL (3% DMSO+2% anhydrous ethanol+1% polyoxyethylene castor oil). The dose was 5 mg/kg and the route of administration was oral gavage (i.g). The body weight, body temperature, tumor size and food intake of the mice were monitored daily. The mice in the model group were considered to be in the advanced stage of cachexia when they were about 10% weight loss after 16 days. The muscle grip of mice's limbs was measured, and samples of gastrocnemius muscle, epididymal fat and tumor were obtained after the mice were executed by […] and the tissue samples were weighed.
The measurement method of the muscle grasping force is as follows: The researcher holds the mouse steadily with his right hand, puts the mouse on the “YLS-13A rat and mouse grasping force measuring instrument” to let the forelimbs of mouse firmly grasp the grasping plate and uses his left hand to stabilize the grasping plate. To measure the muscle grasping force of the mouse, the researcher slowly releases his left hand from the grasping plate and immediately uses his right hand to pull the mouse's tail backward slowly until the forelimbs are free from the grasping plate. Each mouse is repeated 8 times, and the average value of the 8 times is used as the skeletal muscle strength index of each mouse.
Results and Conclusions: Referring to FIGS. 48 to 58, the three curves in the figures represent the healthy group, the C26 tumor model group and the dosing group (compound 4 group, where compound 4 was administrated at a dose of 5 mg/kg), respectively.

Series [2] relates to mouse myoblasts (C2C12) myotubes. Briefly: C2C12 myotube atrophy induced by C26 cell culture medium (HE staining, myotube diameter). The series is classed as cell-based. Conditions: for Myotube atrophy reversal rate (%): 48 h, C26 medium-induced C2C12 myotubes. From the text:
Carbamo(dithioperoxo)thioate analogs alleviate mouse myoblasts (C2C12) atrophy induced by mouse colon cancer cell (C26).
The diameter measurement method was used to evaluate the diameter of myotubes differentiated from mouse myoblasts (C2C12). The staining method used in the experiment was hematoxylin-eosin staining, referred to as HE staining. The hematoxylin stain is alkaline, positively charged, and easily binds to negatively charged and acidic deoxyribonucleic acid (DNA) in the nucleus with ionic bonding to show blue; while eosin is an acidic dye that dissociates into negatively charged anions in water and easily binds to the positively charged amino groups of proteins in the cytoplasm to show red. The stained cells were placed under a high-magnification microscope to take photos (magnification power: 400), and the diameter of myotubes could be counted using image J software.
The above method allows to evaluate the effect of the drug on the muscle atrophy cell model. The specific method is as follows.
C2C12 cells were seeded in 24-well plates in a culture medium of high-glucose DMEM medium containing 10% FBS and 1% P/S, and placed in a 5% CO2, 37° C. environment. When the cell density reaches 50%˜60%, the culture medium was changed into 2% HS differentiation medium (high-glucose DMEM medium containing 2% HS and 1% P/S); the differentiation medium was changed every 48 h until mature on day 5 or day 6. In addition, C26 cells were inoculated in T75 flasks, and the culture medium was changed into high-glucose DMEM medium containing 10% FBS and 1% P/S, and placed in a 5% CO2, 37° C. environment. While C26 cells (6×10^6 cells/flasks) were passaged, add 20 mL of culture medium to sequentially subculture for 48 h. To obtain the C26 supernatant, centrifuge C26 culture medium at 1000 rpm for 3 min and then at 4000 rpm for 10 min successively. The C26 supermatant and 2% HS differentiation medium were mixed 1:1 (volume ratio) as a muscle atrophy inducing medium. Except for the control group with 2% HS differentiation medium, other each group was added with the equal amounts of muscle atrophy-inducing medium and one group was used as the model group, and the rest groups were used as the experimental groups for drug administration. At the same time, carbamo(dithioperoxo)thioate compounds were added into the cells at the following gradient concentrations.
Wherein, the serial numbers correspond to the numbers of the accompanying figures, that is, FIG. 1-46 correspond to the samples of serial numbers 1-46 in Table 1. μM refers to μmol/L.
Myotube diameter was measured as follows.
After 48 h of action, the myotubes were fixed with fixative solution (anhydrous ethanol:formaldehyde:glacial acetic acid volume ratio=20:2:1) for more than 1 h, stained using hematoxylin-eosin staining method, and placed under a high-magnification microscope to acquire images and counted the diameter of myotubes using image J. The muscle atrophy reversal rate was calculated according to the following equation. Muscle atrophy reversal rate=(Average value of myotubes in drug administration group−Average value of myotubes in model group)/(Average value of myotubes in control group−Average value of myotubes in model group)×100%

Where [3] appears, read: vs C26 tumor model group, p<0.05.

Turning to `CCCCCCCCCCCCSSC(=S)N1CCCC1` [Compound 4], the “cancer cachexia symptoms (weight loss, muscle atrophy, fat loss, body temperature decrease)” value in series [1] is “alleviate the weight loss, muscle atrophy, fat degradation and body temperature decrease”. In series [1] (end of experiment, p<0.01), the “body weight with tumor vs C26 tumor model group” value was “higher than those in the C26 tumor model group” and the “body weight without tumor vs C26 tumor model group” value is “higher than those in the C26 tumor model group”. In series [1] (vs C26 tumor model group), the food intake result was “higher food intake than the C26 tumor model group” and the “tumor volume / growth of C26 tumors” value is “no significant inhibitory effect”. In series [1] (setting [3]), the epididymal fat mass entry is recorded as “significantly increase the epididymal fat mass”, the gastrocnemius muscle mass entry was “significantly alleviate gastrocnemius muscle atrophy” and the muscle grasping force entry is “significantly enhance the muscle grasping force”. Moreover, in series [2] (3.125 μM), the “Myotube atrophy reversal rate (%)” value was found to be 37.78%. Also, the “Myotube atrophy reversal rate (%)” value in series [2] (6.25 μM) came out at 54.53%. Further, in series [2] (12.5 μM), the “cytotoxicity (in words)” value is “non-cytotoxic” and the “Myotube atrophy reversal rate (%)” value was 92.83%. The “Myotube atrophy reversal rate (%)” value in series [2] (12.5 μM, listed as compound 4) worked out at 92.83%.
